We go through two molecules from US11597954B2, “Bioproduction of phenethyl alcohol, aldehyde, acid, amine, and related compounds” (National University of Singapore, priority 2017, dated 2023).

Bounds are passed on as bounds.

One data set concerns cells. The following applies: literature; cited from earlier work.
Data set [1] has as its system E. coli (pRSF-PAL-PAD_pET-SMO-SOI-PAR). The class given is cell-based. On the procedure: (§1) The reaction for FIG. 17b was done at 30° C. and 250 rpm in 2 ml KP buffer (100 mM, pH 8.0) containing 0.5% (w/v) glucose, 5 g cdw/L of cell suspension, 10 mM L-phenylalanine, and (•) 0 or (▴) 3 mM of 2-PE in the aqueous phase, with n-hexadecane in the organic phase.
The product inhibition was investigated by adding different concentration of 2-PE to the cell suspension (10 g cdw/L) of E. coli (pRSF-PAL-PAD_pET-SMO-SOI-PAR) in KP buffer (100 mM, pH 8.0) containing 0.5% glucose in aqueous phase with n-hexadecane as the organic phase, followed by the incubation at 30° C. and 250 rpm for 3 h.
Biotransformation was done in aqueous phase with KP buffer (100 mM, pH 8.0) containing cell suspension (10 g cdw/l), 0.5% glucose, and 50 mM L-phenylalanine as initial substrate while n-hexadecane as the organic phase (250 rpm, 2 h, 30° C.)

A short description of data set [2]: Partition coefficient in aqueous-organic biphasic system. The class given is physicochemical. The following applies: for Partition coefficient K value: phase ratio 1:1. On the procedure:
FIGS. 18a and 18b show (FIG. 18a) partition coefficient of 2-PE in aqueous-organic biphasic system. Partition coefficient measured at a phase ratio of 1:1. KP buffer (100 mM, pH 8.0) was utilized as the aqueous buffer. All data were obtained from the mean values of triplicate with standard deviations through HPLC analysis. K value for L-phenylalanine was observed as ˜0 in all the respective organic solvents mentioned and (FIG. 18b) screening of 7 different organic solvent for the one-pot production of 2-PE from L-phenylalanine with the KP buffer (100 mM, pH 8.0) containing 0.5% glucose and 50 mM L-phenylalanine.
In-situ product removal technique via extraction have been conducted to remove the obtained 2-PE from the aqueous phase and make its concentration below the inhibitory level. We investigated different type of organic solvents and ionic liquids to perform the extractive biotransformation for 2-PE production via styrene-derived pathway from L-phenylalanine, starting from the analysis of their partition coefficients in the biphasic system. Product and substrate coefficient partitions in organic and aqueous phase were determined by adding different concentration of 2-PE and L-phenylalanine, respectively, into KP buffer (100 mM, pH 8.0) together with the respective organic solvents. Reaction mixtures were incubated for 1 h (280 rpm, 30° C.).

The subject of data set [3] is E. coli (R-PAL-PAD_E-SMO-SOI-PAR). Description: Apparent kinetics of the whole-cells (Lineweaver-Burk plot) with and without 2-PE. The following applies: competitive inhibition; 3 mM 2-PE, 15 minutes, 5 g cdw/L cells, 10 mM L-phenylalanine, 30° C. The format is cell-based. As to the method: as §1
To further investigate the product inhibition, the apparent kinetics of the whole-cells was measured and determined using Lineweaver-Burk plot. 2-PE concentration of 3 mM was used for 15 minutes in order to determine the kinetic, thus the product toxicity towards the cells could be neglected.

In the case of `OCCc1ccccc1` [2-PE, 2-Phenylethanol], the “Concentration of 2-PE that will inhibit the cells” value in the data set with cells is 2-3 gr/L. Further, the “2-PE concentration in the aqueous phase that started to inhibit the biotransformation” value in data set [1] (3 h pretreatment, then 50 mM L-phenylalanine, 2 h, 30° C.) is on record as “above 30 mM”. The “Toxicity of 2-PE to the cells” value in data set [1] (cells 10 g cdw/L incubated with 2-PE 3 h, 30° C., KP buffer pH 8.0 / n-hexadecane) is “toxic”. Also, the “Biotransformation activity of cells pretreated with 2-PE” value in data set [1] (pretreated with 90 mM 2-PE) was “almost no activity”. Moreover, in data set [2] (most of the organic solvents used vs KP buffer (100 mM, pH 8.0)), the “Partition coefficient K value” is greater than 1. For the same molecule, the Partition coefficient result in data set [2] (n-hexadecane vs KP buffer (100 mM, pH 8.0), compared with the other organic solvents) was “much lower”. The Ki in data set [3] came out at 4.8 mM.

Turning to `N[C@@H](Cc1ccccc1)C(=O)O` [L-phenylalanine], the “Partition coefficient K value” in data set [2] (all the respective organic solvents vs KP buffer (100 mM, pH 8.0)) is roughly 0.
